Molecular target: T1, human TLX (Homo sapiens, UniProt Q9Y466)
T1 construct: expressed in transfected cells; host or cells: HEK293T
Experiment: Gal4 hybrid reporter gene assay (TLX modulation)
Type: cell-based
Set-up: key to relative reporter activity: fraction of DMSO control (DMSO = 1)
Conditions: for relative reporter activity: DMSO control = 1; for EC50: Gal4-TLX hybrid reporter in HEK293T cells, 16 h incubation
Method: In the Tables, the TLX relative reporter activity is expressed as EC50 (in µM) for each listed compound. "EC50" refers to a measure of the concentration of a compound which induces a biological response halfway between the baseline and maximum after a specified exposure time. […] The EC50 is measured via a hybrid reporter gene assay, employing the transfection of a reporter (firefly luciferase with Gal4 response element), a control gene (Renilla luciferase), a transcriptional activator (Gal4-VP16) and a hybrid receptor consisting of the TLX ligand binding domain (LBD) and the Gal4 DNA binding domain (DBD).
Hybrid reporter gene assays. […] After 24 h, medium was changed to Opti-MEM without supplements and cells were transiently transfected using Lipofectamine LTX reagent (Invitrogen, Carlsbad, CA, USA) according to the manufacturer's protocol. Five hours after transfection, cells were incubated with the test compounds in Opti-MEM supplemented with penicillin (100 U/mL), streptomycin (100 µg/mL) and 0.1% DMSO for 16 h before luciferase activity was measured using the Dual-Glo Luciferase Assay System (Promega) according to the manufacturer's protocol on a Tecan Spark luminometer (Tecan Deutschland GmbH, Crailsheim, Germany). Firefly luminescence was divided by Renilla luminescence and multiplied by 1000 resulting in relative light units (RLU) to normalize for transfection efficiency and cell growth. Fold activation was obtained by dividing the mean RLU of test compound by the mean RLU of the untreated control. All samples were tested in at least three biologically independent experiments in duplicates. For dose-response curve fitting and calculation of EC50 values, the equation "[Agonist] vs. response -- Variable slope (four parameters)" was used in GraphPad Prism (version 7.00, GraphPad Software, La Jolla, CA, USA).

[1] = minimal remaining or maximum reporter activity after treatment, in brackets below the EC50, <1 agonism, >1 inverse agonism

T1 sequence (Q9Y466 155-383 limits assumed): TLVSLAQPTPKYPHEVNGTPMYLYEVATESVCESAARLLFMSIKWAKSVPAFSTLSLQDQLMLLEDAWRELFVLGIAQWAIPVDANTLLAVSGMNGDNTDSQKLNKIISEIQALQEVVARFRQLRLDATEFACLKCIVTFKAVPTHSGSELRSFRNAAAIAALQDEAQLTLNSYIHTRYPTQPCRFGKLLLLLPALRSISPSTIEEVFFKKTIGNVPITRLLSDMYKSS

Structure (SMILES)	EC50	relative reporter activity [1]	other results
Cc1cn(-c2cc(NC(=O)c3cccc4ccccc34)cc(C(F)(F)F)c2)cn1 [compound 6, N-(3-(4-methyl-1H-imidazol-1-yl)-5-(trifluoromethyl)phenyl)-1-naphthamide]			relative reporter activity (at 3 µM): (0.79±0.03 at 3 µM)
CCOc1cc(C(=O)Nc2cc(-n3cnc(C)c3)cc(C(F)(F)F)c2)c2ccccc2n1 [compound 8, 2-ethoxy-N-(3-(4-methyl-1H-imidazol-1-yl)-5-(trifluoromethyl)phenyl)quinoline-4-carboxamide]	1.1 ± 0.3 µM	0.57±0.04	
Cc1cn(-c2cc(NC(=O)c3ccncc3)cc(C(F)(F)F)c2)cn1 [compound 11, N-(3-(4-methyl-1H-imidazol-1-yl)-5-(trifluoromethyl)phenyl)isonicotinamide]			relative reporter activity (at 20 µM): (0.41±0.05 at 20 µM)
Cc1cn(-c2cc(NC(=O)c3ccnc(Cl)c3)cc(C(F)(F)F)c2)cn1 [compound 12, 2-chloro-N-(3-(4-methyl-1H-imidazol-1-yl)-5-(trifluoromethyl)phenyl)-isonicotinamide]			relative reporter activity (at 10 µM): (0.71±0.05 at 10 µM)
Cc1cn(-c2cc(NC(=O)c3ccccc3)cc(C(F)(F)F)c2)cn1 [compound 14, N-(3-(4-methyl-1H-imidazol-1-yl)-5-(trifluoromethyl)phenyl)benzamide]	8 ± 1 µM	0.38±0.08	
Cc1cn(-c2cc(NC(=O)c3ccc(Cl)cc3)cc(C(F)(F)F)c2)cn1 [compound 15, 4-chloro-N-(3-(4-methyl-1H-imidazol-1-yl)-5-(trifluoromethyl)phenyl)benzamide]	2.3 ± 0.3 µM	0.41±0.05	
Cc1cn(-c2cc(NC(=O)c3ccc(Cl)c(Cl)c3)cc(C(F)(F)F)c2)cn1 [compound 16, 3,4-dichloro-N-(3-(4-methyl-1H-imidazol-1-yl)-5-(trifluoromethyl)phenyl)-benzamide]	2.1 ± 0.9 µM	0.33±0.12	
COc1ccc(C(=O)Nc2cc(-n3cnc(C)c3)cc(C(F)(F)F)c2)cc1 [compound 17, 4-methoxy-N-(3-(4-methyl-1H-imidazol-1-yl)-5-(trifluoromethyl)phenyl)benzamide]	5.2 ± 0.4 µM	0.42±0.03	
Cc1ccc(C(=O)Nc2cc(-n3cnc(C)c3)cc(C(F)(F)F)c2)cc1 [compound 18, 4-methyl-N-(3-(4-methyl-1H-imidazol-1-yl)-5-(trifluoromethyl)phenyl)benzamide]	1.4 ± 0.7 µM	0.59±0.06	
Cc1cn(-c2cc(NC(=O)c3ccc(C(F)(F)F)cc3)cc(C(F)(F)F)c2)cn1 [compound 19, N-(3-(4-mefhyl-1H-imidazol-1-yl)-5-(trifluoromefhyl)phenyl)-4-(frifluoromethyl)-benzamide]	3.3 ± 1.2 µM	0.59±0.10	
Cc1cn(-c2cc(NC(=O)Cc3cccnc3)cc(C(F)(F)F)c2)cn1 [compound 21, N-(3-(4-methyl-1H-imidazol-1-yl)-5-(trifluoromethyl)phenyl)-2-(pyridin-3-yl)acetamide]	1.4 ± 0.3 µM	0.21±0.07	
Cc1cn(-c2cc(NC(=O)c3ccc(Cl)c4ccccc34)cc(C(F)(F)F)c2)cn1 [compound 31, 4-chloro-N-(3-(4-methyl-1H-imidazol-1-yl)-5-(trifluoromethyl)phenyl)-1-naphthamide]	1.8 ± 0.4 µM	0.34±0.11	
Nc1cc(-n2ccnc2)cc(C(F)(F)F)c1 [compound 33, 3-(1H-imidazol-1-yl)-5-(trifluoromethyl)aniline]	4.4 ± 0.9 µM		
Nc1cc(-n2cccc2)cc(C(F)(F)F)c1 [compound 34, 3-(1H-pyrrol-1-yl)-5-(trifluoromethyl)aniline]	15 ± 7 µM	0.23±0.15	
Nc1cc(-n2cnc3ccccc32)cc(C(F)(F)F)c1 [compound 35, 3-(1H-benzo[d]imidazol-1-yl)-5-(trifluoromethyl)aniline]	2.4 ± 0.9 µM		
O=C(Nc1cc(-n2cnc3ccccc32)cc(C(F)(F)F)c1)c1ccnc2ccccc12 [compound 36, N-(3-(1H-benzo[d]imidazol-1-yl)-5-(trifluoromethyl)phenyl)quinoline-4-carboxamide]			relative reporter activity (at 10 µM): (0.24±0.04 at 10 µM

Structure (SMILES)	EC50	relative reporter activity [1]	other results
Cc1cnn(-c2cc(N)cc(C(F)(F)F)c2)c1 [compound 37, 3-(4-methyl-1H-pyrazol-1-yl)-5-(trifluoromethyl)aniline]			relative reporter activity (at 100 µM): (0.48±0.09 at 100 µM)
Cn1cc(-c2cc(N)cc(C(F)(F)F)c2)cn1 [compound 38, 3-(1-methyl-1H-pyrazol-4-yl)-5-(trifluoromethyl)aniline]	9.5 ± 4.4 µM	0.43±0.11	
Nc1cc(-c2cn[nH]c2)cc(C(F)(F)F)c1 [compound 39, 3-(1H-Pyrazol-4-yl)-5-(trifluoromethyl)aniline]			relative reporter activity (at 50 µM): (0.35±0.06 at 50 µM)
Nc1cc(-c2cnoc2)cc(C(F)(F)F)c1 [compound 40, 3-(isoxazol-4-yl)-5-(trifluoromethyl)aniline]	3.2 ± 1.2 µM	0.47±0.06	
Cc1nn(C)c(C)c1-c1cc(N)cc(C(F)(F)F)c1 [compound 41, 3-(trifluoromethyl)-5-(1,3,5-trimethyl-1H-pyrazol-4-yl)aniline]	4.2 ± 0.9 µM	0.34±0.09	
Cc1noc(C)c1-c1cc(N)cc(C(F)(F)F)c1 [compound 42, 3-(3,5-dimethylisoxazol-4-yl)-5-(trifluoromethyl)aniline]			relative reporter activity (at 10 µM): (0.70±0.07 at 10 µM)
Cc1cc(-c2cc(N)cc(C(F)(F)F)c2)n[nH]1 [compound 43, 3-(5-methyl-1H-pyrazol-3-yl)-5-(trifluoromethyl)aniline]			relative reporter activity (at 100 µM): (0.29±0.05 at 100 µM)
Cn1cnc(-c2cc(N)cc(C(F)(F)F)c2)n1 [compound 44, 3-(1-methyl-1H-1,2,4-triazol-3-yl)-5-(trifluoromethyl)aniline]			relative reporter activity (at 100 µM): (0.63±0.04 at 100 µM)
Cc1cc(-c2cc(N)cc(C(F)(F)F)c2)nn1C [compound 45, 3-(1,5-dimethyl-1H-pyrazol-3-yl)-5-(trifluoromethyl)aniline]			relative reporter activity (at 100 µM): (0.56±0.12 at 100 µM)
Cc1cc(C(=O)Nc2cc(N)cc(C(F)(F)F)c2)nn1C [compound 46, N-(3-amino-5-(trifluoromethyl)phenyl)-1,5-dimethyl-1H-pyrazole-3-carboxamide]	11 ± 5 µM	0.20±0.02	
Cc1c(-c2cc(N)cc(C(F)(F)F)c2)cnn1C [compound 49, 3-(1,5-dimethyl-1H-pyrazol-4-yl)-5-(trifluoromethyl)aniline]	3.9 ± 1.6 µM	0.49±0.11	
Cc1nc(-c2cc(N)cc(C(F)(F)F)c2)cn1C [compound 50, 3-(1,2-dimethyl-1H-imidazol-4-yl)-5-(trifluoromethyl)aniline]			relative reporter activity (at 100 µM): (0.70±0.06 at 100 µM)
Cn1cc(-c2cc(N)cc(C(F)(F)F)c2)c2ccccc21 [compound 51, 3-(1-Methyl-1H-indol-3-yl)-5-(trifluoromethyl)aniline]	9.1 ± 0.7 µM		
Cn1cc(-c2cc(N)cc(C(F)(F)F)c2)c2cccnc21 [compound 52, 3-(1-methyl-1H-pyrrolo[2,3-b]pyridin-3-yl)-5-(trifluoromethyl)aniline]	3.5 ± 0.8 µM		
Nc1cc(-c2nccs2)cc(C(F)(F)F)c1 [compound 53, 3-(thiazol-2-yl)-5-(trifluoromethyl)aniline]			relative reporter activity (at 100 µM): (0.63±0.10 at 100 µM)

Source: patent EP4650002A1 (Ludwig-Maximilians-Universität, priority 2024, dated 2025)
